Laboratory results from patent US20050239873A1 (priority 1999, published 2005).

What was measured:
plasma proteins = assay: Binding to plasma proteins (ultrafiltration); type: in vitro ADME, human; conditions: presence of NaF+EDTA, 1000 ng/ml
Description: Solutions of 2-OMe antimycin A3 were diluted with plasma (dog or human) containing NaF+EDTA to final concentrations of 1.0 or 0.2 μg/ml. Controls were diluted with water to the same final concentrations. These preparations were incubated at 37° C. for 20 min, at which time portions were taken and placed in the sample reservoirs of Amicon Centrifree® ultrafiltration systems (Millipore Co., Bedford, Mass.). At 37° C., the filter systems were centrifuged until the reservoirs were dry. From each filtrate, portions were taken for analysis by HPLC. The amounts present were designated as “free drug” (F). The concentrations of the unfiltered solutions were also determined by triplicate analyses. This amount represented the “total drug” concentration (T). The percentage of 2-OMe antimycin A3 bound to plasma proteins was calculated by the following formula: % bound=((T−F)/T)×100

RPMI-8226 cells = assay: GI50 assay (MTT); type: cell-based, human; conditions: 48 h, MTT
Description: RPMI 8226 cells were grown in 96 well plates for 24 h prior to addition of 2-methoxy Antimycins. Antimycin stocks in DMSO were serially diluted in RPMI media. Cells were incubated for 48 h with compounds at final compound concentrations ranging from 10^−4 to 10^−8 M. MTT assays were performed in quadruplicate and percent growth inhibitions were calculated as (A570 (control cells)—A570 (treated cells))/A570 (control cells). The GI50 was extrapolated from semi-log plots of the dose response for each compound. […] After 72 h drug exposures, 1 μCi/ml [^3H]-thymidine was added to wells. Cells were incubated for an additional 24 h, and then transferred to GF/C filter plates (Packard) using a plate washer. Filters were dried, added to scintillant, and counted in a TopCount scintillation counter (Packard). Drug response was expressed as the percentage of vehicle-treated controls, and each value shown as the average of three determinations.

[1] = system: RPMI-8226 human myeloma xenografts in NOD/SCID mice; assay: RPMI-8226 tumor xenografts; type: in vivo, mouse
Description: Six to nine-week old Nod/Les2 Scid/J mice were inoculated with 3×10^7 RPMI-8226 cells by interscapular subcutaneous injection. Mice were maintained under specific pathogen-free conditions. Palpable tumor nodules were measured in two dimensions with calipers and tumor volumes calculated in mm^3 as (length×width^2)/2. Blood samples were collected by retro-orbital bleed for human light chain measurements by ELISA with lambda-specific antibody and horseradish peroxidase detection (BD Biosciences). Animals were sacrificed by halothane inhalation, and histologic examination of tumors and internal organs was performed. All experiments were approved by the Fred Hutchison Cancer Research Center Institutional Animal Care and Use Committee.
2-OMe antimycin A1 was synthesized from antimycin A1 (Sigma) (comprising about 80% antimycin Ala and about 20% A1b) and dissolved in phosphate-buffered saline with 20% Cremaphor, 25% ethanol (3 mg/ml) for parenteral administration by tail vein injection in a total volume of 100 μl. Control mice received injections of Cremaphor/ethanol vehicle.
Tissues were fixed in 10% buffered formalin, embedded in paraffin, sectioned and stained with hematoxylin and eosin. TUNEL staining was performed using 0.3 units/ml terminal deoxynucleotidyl transferase and biotinylated dATP with development by avidin-biotin peroxidase method. BCl-xL immunohistochemistry was performed using anti-Bcl-xL antibody (BD Biosciences) followed by biotinylated secondary antibody and peroxidase-labeled ABC reagent (Vector, Burlingame Calif.).
To determine whether 2-OMeA, has anti-tumor activity in vivo, a total of 12 NOD/SCID mice in three experiments were inoculated with 3×10^7 RPMI-8226 human myeloma cells by interscapular subcutaneous injection. […] In total, six mice received three intravenous doses of 10 mg/kg 2-OMeA1 on alternate days starting on day 6. Six control mice received injections of Cremaphor/ethanol vehicle without drug.

RPMI-8226 = assay: Propidium iodide exclusion / flow cytometry cytotoxicity; type: cell-based, human; conditions: for mode of induced cell death: annexin V, sub-G1 DNA content, mitochondrial membrane potential
Description: Cell survival was assayed by exclusion of propidium iodide (PI; 10 μg/ml) by unfixed cells. Annexin V-FITC (Pharmingen) or 3, 3′-dihexyloxacarbocyanine iodide (DiOC6(3); Molecular Probes) staining was analyzed together with PI to discriminate early apoptotic cells. Apoptotic cells were also measured as sub-G1 events among ethanol-fixed cells stained with 10 μg/ml PI. All cell samples were analyzed using a benchtop FACSCalibur™ (Becton Dickinson, San Jose, Calif.). Flow data were analyzed using MultiCycle AV software (Phoenix Flow Systems). For intracellular pH measurements, cell pellets were washed once and resuspended in 2 ml of HEPES-buffered medium (no phenol red and no serum). Carboxy-SNARF-1-AM (Molecular Probes, 1 mM stock in DMSO, stored at −20° C.) was added to a final concentration of 10 μM, and the cells were incubated for 30 min at 37° C. Following incubation with SNARF, cells were sedimented and the pellets were held on ice. Immediately before analysis, pellets were resuspended in […] (HBSS; experimental buffer) or high-[K+] buffer containing nigericin (calibration samples).

cytochrome bc1 = cytochrome bc1 (Bos taurus, UniProt P00157); conditions: cited from earlier work
S9 metabolism = type: in vitro ADME; conditions: male, hepatic S9 fraction, pH 7.4; for half-life at 500 ng/ml: 37° C.
Description: All chemicals and solvents used for sample preparation and HPLC analysis were analytical grade. Acetonitrile, methanol, and phosphoric acid were purchased from Fisher Scientific (Atlanta, Ga.). Hepatic S9 fractions from male CD2F1 mice, male Sprague Dawley rats, male dogs, and male humans were purchased from In Vitro Technologies (Boston, Mass.). The National Cancer Institute provided samples of the test compounds and male CD2F1 mice. Fischer 344 rats with implanted jugular cannulas were obtained from Charles River Laboratories (Cambridge, Mass.). All animal use and care procedures were approved by the Institutional Committee on Animal Use and Care at the University of Alabama at Birmingham and conformed to the guidelines found in Guide for the Care and Use of Laboratory Animals, National Academy Press, 1996.
To evaluate metabolism of the test compounds by S9 fractions from various species, reaction systems maintained at 37° C. contained 2-OMe-A3 (500 ng/ml) and S9 (1 mg protein/ml) in 100 mM Tris buffer (pH 7.4). At selected times, triplicate portions of the mixtures were removed and processed for analysis, as described above.

Compound: CCCCCC[C@H]1C(=O)O[C@H](C)[C@H](NC(=O)c2cccc(NC=O)c2OC)C(=O)O[C@@H](C)[C@@H]1OC(=O)CC(C)C [2-OMeA1, 2-methoxy antimycin A1]
- Protein binding, Human (plasma proteins): 99.5%
- GI50 (RPMI-8226 cells): 8.56 µM
- time to regression of early and large nodules ([1]; 10 mg/kg intravenously): within the first week
- tumor sections ([1]; 24 and 48 h after a single 10 mg/kg intravenous treatment): widespread apoptosis
- average reduction of serum levels of human light chain ([1]; after the third injection, 10 mg/kg intravenous on alternate days): 87%
- mice with tumor regression during treatment ([1]; three intravenous doses of 10 mg/kg on alternate days starting on day 6): Five of six
- effect of delayed treatment on tumor nodules ([1]; two tumor-bearing control mice, 10 mg/kg on days 43, 46 and 48): regression of tumor nodules

Compound: 2-methoxy antimycin A [2-OMeA]
- cell killing measured as PI uptake, compared with antimycin A (RPMI-8226; 5 and 20 μg/ml, three cell lines): similar
- mode of induced cell death (RPMI-8226): apoptosis
- treated mice with regression of tumor nodules ([1]; second round, 10 mg/kg alternate days, days 26 through 31): 6/6
- reduction of oxidative phosphorylation inhibitory activity at complex III (cytochrome bc1; relative to antimycin A): 1000 fold

Compound: antimycin A
- time of treatment at which cell death was demonstrated (RPMI-8226): ≤ 8 h
- sensitivity (PI exclusion) (RPMI-8226; 5 to about 20 μg/ml): sensitive
- mode of induced cell death (RPMI-8226): apoptosis

Compound: CCCC[C@H]1C(=O)OC(C)[C@H](NC(=O)c2cccc(NC=O)c2OC)C(=O)O[C@@H](C)C1OC(=O)CC(C)C (some centres unmarked) [2-OMeA3, Antimycin A3 methyl ether]
- Protein binding, Human (plasma proteins): 99.9%
- half-life at 2000 ng/ml (S9 metabolism; CD2F1, mouse): > 5 min
- half-life at 500 ng/ml (S9 metabolism; CD2F1, mouse): > 5 min
- half-life at 2000 ng/ml (S9 metabolism; Sprague Dawley, rat): > 5 min
- half-life at 500 ng/ml (S9 metabolism; Sprague Dawley, rat): > 5 min
- half-life at 2000 ng/ml (S9 metabolism; dog): > 5 min
- half-life at 500 ng/ml (S9 metabolism; dog): > 5 min
- GI50 (RPMI-8226 cells; Homo sapiens, RPMI-8226): 10.2 µM
- activity as an inhibitor of cytochrome bc1 (cytochrome bc1): inactive
